Results reported in the supplement of paper PMC10307832.

Tests used:
Experiment in all cases: relative viability (nuclei count vs DMSO), 5 days (fraction); higher = more cells survive
Carboplatin + Pemetrexed = compound: C1CC(C1)(C(=O)O)C(=O)O.[NH2-].[NH2-].[Pt+2] [Carboplatin] + Nc1nc2[nH]cc(CCc3ccc(C(=O)N[C@@H](CCC(=O)O)C(=O)O)cc3)c2c(=O)[nH]1 [Pemetrexed] (partner 0.2 µM)
Procedure, shortened: (§1)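 Values are medians from duplicate plates. Each reflects relative viability, defined as the nuclei count of treated wells over that of vehicle wells. Lung cancer cell lines in 1536-well plates were pin-tool dosed one day after seeding with one drug alone or with a fixed anchor-drug dose plus five library-drug doses (not always all listed) in √10 steps, then fixed, stained and imaged at 4× after 5 days.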

MLN4924 + Trametinib = compound: NS(=O)(=O)OC[C@@H]1C[C@@H](n2ccc3c(N[C@H]4CCc5ccccc54)ncnc32)C[C@@H]1O [MLN4924] + CC(=O)Nc1cccc(-n2c(=O)n(C3CC3)c(=O)c3c(Nc4ccc(I)cc4F)n(C)c(=O)c(C)c32)c1 [Trametinib] (partner 0.02 µM)
Procedure, shortened: as §1

Carboplatin + Decitabine = compound: C1CC(C1)(C(=O)O)C(=O)O.[NH2-].[NH2-].[Pt+2] [Carboplatin] + Nc1ncn([C@H]2C[C@H](O)[C@@H](CO)O2)c(=O)n1 [Decitabine] (partner 2 µM)
Procedure, shortened: as §1

Carboplatin + AZD7762 = compound: C1CC(C1)(C(=O)O)C(=O)O.[NH2-].[NH2-].[Pt+2] [Carboplatin] + NC(=O)Nc1cc(-c2cccc(F)c2)sc1C(=O)N[C@H]1CCCNC1 [AZD7762] (partner 0.2 µM)
Procedure, shortened: as §1

Row | Cell Line | relative viability (Carboplatin + Pemetrexed; first compound 0.08 µM) | relative viability (Carboplatin + Pemetrexed; first compound 0.253 µM) | relative viability (Carboplatin + Pemetrexed; first compound 0.8 µM) | relative viability (Carboplatin + Pemetrexed; first compound 2.53 µM) | relative viability (Carboplatin + Pemetrexed; first compound 8 µM) | relative viability (MLN4924 + Trametinib; first compound 0.04 µM) | relative viability (MLN4924 + Trametinib; first compound 0.1265 µM) | relative viability (MLN4924 + Trametinib; first compound 0.4 µM) | relative viability (MLN4924 + Trametinib; first compound 1.265 µM) | relative viability (MLN4924 + Trametinib; first compound 4 µM) | relative viability (Carboplatin + Decitabine; first compound 0.08 µM) | relative viability (Carboplatin + Decitabine; first compound 0.253 µM) | relative viability (Carboplatin + Decitabine; first compound 0.8 µM) | relative viability (Carboplatin + Decitabine; first compound 2.53 µM) | relative viability (Carboplatin + Decitabine; first compound 8 µM) | relative viability (Carboplatin + AZD7762; first compound 0.08 µM) | relative viability (Carboplatin + AZD7762; first compound 0.253 µM) | relative viability (Carboplatin + AZD7762; first compound 0.8 µM) | relative viability (Carboplatin + AZD7762; first compound 2.53 µM) | relative viability (Carboplatin + AZD7762; first compound 8 µM)
1 | LXF-289 | 0.981 | 0.998 | 0.902 | 0.895 | 0.744 | 0.568 | 0.419 | 0.464 | 0.216 | 0.131 | 0.395 | 0.407 | 0.382 | 0.358 | 0.31 | 1.17 | 1.16 | 1.07 | 1.06 | 1.03
2 | NCI-H23 | 0.707 | 0.648 | 0.634 | 0.564 | 0.631 | 0.403 | 0.391 | 0.326 | 0.201 | 0.167 | 0.377 | 0.266 | 0.298 | 0.291 | 0.276 | 0.264 | 0.263 | 0.243 | 0.188 | 0.23
3 | NCI-H322M | 0.688 | 0.601 | 0.613 | 0.594 | 0.616 | 0.662 | 0.735 | 1.03 | 0.452 | 0.389 | 0.74 | 0.723 | 0.711 | 0.763 | 0.62 | 0.598 | 0.548 | 0.553 | 0.547 | 0.428
4 | NCI-H358 | 0.179 | 0.21 | 0.188 | 0.16 | 0.174 | 0.167 | 0.137 | 0.138 | 0.115 | 0.0882 | 0.213 | 0.222 | 0.201 | 0.201 | 0.186 | 0.732 | 0.514 | 0.516 | 0.575 | 0.561
5 | NCI-H441 | 0.289 | 0.258 | 0.271 | 0.243 | 0.241 | 0.576 | 0.508 | 0.598 | 0.152 | 0.19 | 0.215 | 0.242 | 0.211 | 0.209 | 0.222 | 1.26 | 1.11 | 0.954 | 0.995 | 0.804
6 | NCI-H460 | 0.0702 | 0.0594 | 0.0708 | 0.068 | 0.0641 | 0.3 | 0.205 | 0.332 | 0.0885 | 0.0366 | 0.461 | 0.476 | 0.481 | 0.298 | 0.149 | 0.612 | 0.53 | 0.524 | 0.279 | 0.111
7 | NCI-H522 | 0.814 | 0.924 | 1.11 | 1.01 | 0.913 | 0.638 | 0.696 | 0.691 | 0.314 | 0.386 | 0.646 | 0.685 | 0.614 | 0.655 | 0.644 | 0.783 | 0.74 | 0.876 | 0.908 | 0.728
8 | NCI-H596 | 0.533 | 0.473 | 0.548 | 0.464 | 0.475 | 0.799 | 0.833 | 0.727 | 0.649 | 0.443 | 1.16 | 1.13 | 0.986 | 0.958 | 0.629 | 1.25 | 1.18 | 1.09 | 0.885 | 0.693
9 | NCI-H647 | 0.176 | 0.18 | 0.172 | 0.203 | 0.143 | 0.576 | 0.538 | 0.25 | 0.0717 | 0.072 | 0.45 | 0.305 | 0.286 | 0.292 | 0.306 | 0.604 | 0.474 | 0.444 | 0.476 | 0.303
10 | NCI-H650 | 0.935 | 0.97 | 0.947 | 1 | 0.903 | 0.894 | 0.76 | 0.574 | 0.201 | 0.176 | 0.308 | 0.329 | 0.344 | 0.328 | 0.246 | 0.985 | 0.948 | 0.778 | 0.863 | 0.721
11 | NCI-H838 | 0.271 | 0.285 | 0.236 | 0.244 | 0.251 | 0.438 | 0.331 | 0.172 | 0.0938 | 0.126 | 0.479 | 0.492 | 0.425 | 0.412 | 0.386 | 1.09 | 0.957 | 0.837 | 0.869 | 0.758
12 | NCI-H1355 | 1.06 | 1.1 | 1.09 | 1 | 0.892 | 0.474 | 0.477 | 0.444 | 0.243 | 0.232 | 0.337 | 0.379 | 0.329 | 0.333 | 0.28 | 0.98 | 0.877 | 0.626 | 0.791 | 0.729
13 | NCI-H1395 | 1.02 | 0.983 | 0.814 | 0.61 | 0.534 | 1.07 | 1.02 | 0.836 | 0.392 | 0.385 | 0.797 | 0.747 | 0.63 | 0.584 | 0.516 | 0.403 | 0.39 | 0.406 | 0.386 | 0.405
14 | NCI-H1437 | 0.33 | 0.28 | 0.301 | 0.307 | 0.298 | 0.547 | 0.483 | 0.502 | 0.226 | 0.218 | 0.508 | 0.556 | 0.529 | 0.508 | 0.464 | 1.22 | 1.09 | 0.927 | 0.955 | 1.03
